In ChEMBL document CHEMBL1201861, “Genomics of Drug Sensitity in Cancer screening data, Wellcome Trust Sanger Institute”:

Columns and labels:
Assay in all cases: cells
[1] = test system: NCI-H1355; format: functional, cell-based, Homo sapiens; details: Homo sapiens, NCI-H1355;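 also: growth inhibition of human NCI-H1355 cells, read out by a cell viability assay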
Description: SANGER: Inhibition of human NCI-H1355 cell growth in a cell viability assay.

[2] = test system: JVM-3; format: functional, cell-based, Homo sapiens; details: Homo sapiens, JVM-3;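 also: growth inhibition of human JVM-3 cells, read out with a cell viability assay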
Description: SANGER: Inhibition of human JVM-3 cell growth in a cell viability assay.

[3] = test system: KARPAS-299; format: functional, cell-based, Homo sapiens; details: Homo sapiens, KARPAS-299
Description: SANGER: Inhibition of human KARPAS-299 cell growth in a cell viability assay.

[4] = test system: GCIY; format: functional, cell-based, Homo sapiens; details: Homo sapiens, GCIY;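 also: growth inhibition of the human GCIY cell line, read out by a cell viability assay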
Description: SANGER: Inhibition of human GCIY cell growth in a cell viability assay.

[5] = test system: HDLM-2; format: functional, cell-based, Homo sapiens; details: Homo sapiens, HDLM-2;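 also: cell viability assay measuring suppression of HDLM-2 proliferation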
Description: SANGER: Inhibition of human HDLM-2 cell growth in a cell viability assay.

[6] = test system: LB2518-MEL; format: functional, cell-based; details: Homo sapiens;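 also: growth inhibition of human LB2518-MEL cells, measured with a cell viability assay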
Description: SANGER: Inhibition of human LB2518-MEL cell growth in a cell viability assay.

[7] = test system: TE-12; format: functional, cell-based, Homo sapiens; details: Homo sapiens, TE-12;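 also: growth inhibition of TE-12 cells, read out by a cell viability assay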
Description: SANGER: Inhibition of human TE-12 cell growth in a cell viability assay.

[8] = test system: MS-1; format: functional, cell-based, Homo sapiens; details: Homo sapiens, MS-1;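 also: growth inhibition of MS-1 cells, read out by cell viability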
Description: SANGER: Inhibition of human MS-1 cell growth in a cell viability assay.

[9] = test system: LC-2-ad; format: functional, cell-based, Homo sapiens; details: Homo sapiens, LC-2-ad;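 also: growth inhibition of human LC-2-ad cells, read out with a cell viability assay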
Description: SANGER: Inhibition of human LC-2-ad cell growth in a cell viability assay.

[10] = test system: BB65-RCC; format: functional, cell-based, Homo sapiens; details: Homo sapiens, BB65-RCC;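 also: growth inhibition of the cell line, measured with a cell viability assay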
Description: SANGER: Inhibition of human BB65-RCC cell growth in a cell viability assay.

[11] = test system: NCI-H1395; format: functional, cell-based, Homo sapiens; details: Homo sapiens, NCI-H1395;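 also: cell viability assay read-out quantifying reduced proliferation of human NCI-H1395 cells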
Description: SANGER: Inhibition of human NCI-H1395 cell growth in a cell viability assay.

[12] = test system: A3-KAW; format: functional, cell-based, Homo sapiens; details: Homo sapiens, A3-KAW;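 also: growth inhibition of human A3-KAW cells, read out with a cell viability assay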
Description: SANGER: Inhibition of human A3-KAW cell growth in a cell viability assay.

[13] = test system: KNS-81-FD; format: functional, cell-based, Homo sapiens; details: Homo sapiens, KNS-81-FD;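 also: growth inhibition of KNS-81-FD cells, read out with a cell viability assay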
Description: SANGER: Inhibition of human KNS-81-FD cell growth in a cell viability assay.

[14] = test system: GB-1; format: functional, cell-based, Homo sapiens; details: Homo sapiens, GB-1;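 also: growth of GB-1 cells judged by a viability assay, IC50 marks the concentration inhibiting growth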
Description: SANGER: Inhibition of human GB-1 cell growth in a cell viability assay.

[15] = test system: NCI-H209; format: functional, cell-based, Homo sapiens; details: Homo sapiens, NCI-H209;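 also: growth inhibition of human NCI-H209 cells, measured by a cell viability assay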
Description: SANGER: Inhibition of human NCI-H209 cell growth in a cell viability assay.

[16] = test system: LU-134-A; format: functional, cell-based, Homo sapiens; details: Homo sapiens, LU-134-A
Description: SANGER: Inhibition of human LU-134-A cell growth in a cell viability assay.

[17] = test system: SW 954; format: functional, cell-based, Homo sapiens; details: Homo sapiens, SW 954;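 also: growth inhibition of SW954 human cancer cells, read out as cell viability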
Description: SANGER: Inhibition of human SW954 cell growth in a cell viability assay.

[18] = test system: Calu-6; format: functional, cell-based, Homo sapiens; details: Homo sapiens, Calu-6;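 also: growth of human Calu-6 cells, read out by a cell viability assay, IC50 marking inhibition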
Description: SANGER: Inhibition of human Calu-6 cell growth in a cell viability assay.

[19] = test system: BB30-HNC; format: functional, cell-based, Homo sapiens; details: Homo sapiens, BB30-HNC;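 also: growth inhibition of the cultured cell line, read out by a cell viability assay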
Description: SANGER: Inhibition of human BB30-HNC cell growth in a cell viability assay.

[20] = test system: NCI-H1299; format: functional, cell-based; details: Homo sapiens;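 also: growth inhibition of human NCI-H1299 cells, read out by a cell viability assay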
Description: SANGER: Inhibition of human NCI-H1299 cell growth in a cell viability assay.

[21] = test system: 8-MG-BA; format: functional, cell-based, Homo sapiens; details: Homo sapiens, 8-MG-BA;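 also: growth inhibition of 8-MG-BA cells, read out with a cell viability assay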
Description: SANGER: Inhibition of human 8-MG-BA cell growth in a cell viability assay.

[22] = test system: SNB-75; format: functional, cell-based, Homo sapiens; details: Homo sapiens, SNB-75;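 also: cell viability assay measuring growth inhibition of human SNB-75 cells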
Description: SANGER: Inhibition of human SNB75 cell growth in a cell viability assay.

[23] = test system: NCI-H747; format: functional, cell-based, Homo sapiens; details: Homo sapiens, NCI-H747;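 also: growth inhibition of human NCI-H747 cells, read out by a cell viability assay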
Description: SANGER: Inhibition of human NCI-H747 cell growth in a cell viability assay.

[24] = test system: KY821; format: functional, cell-based, Homo sapiens; details: Homo sapiens, KY821;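 also: growth inhibition of human KY821 cells, read out by a cell viability assay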
Description: SANGER: Inhibition of human KY821 cell growth in a cell viability assay.

[25] = test system: LB1047-RCC; format: functional, cell-based, Homo sapiens; details: Homo sapiens, LB1047-RCC;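 also: inhibition of cell growth, determined with a cell viability assay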
Description: SANGER: Inhibition of human LB1047-RCC cell growth in a cell viability assay.

[26] = test system: OCI-AML2; format: functional, cell-based, Homo sapiens; details: Homo sapiens, OCI-AML2;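 also: growth inhibition of OCI-AML2 cells, read out with a cell viability assay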
Description: SANGER: Inhibition of human OCI-AML2 cell growth in a cell viability assay.

[27] = test system: SK-MEL-2; format: functional, cell-based, Homo sapiens; details: Homo sapiens, SK-MEL-2;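 also: growth inhibition of human SK-MEL-2 cells measured with a cell viability assay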
Description: SANGER: Inhibition of human SK-MEL-2 cell growth in a cell viability assay.

[28] = test system: HT; format: functional, cell-based, Homo sapiens; details: Homo sapiens, HT
Description: SANGER: Inhibition of human HT cell growth in a cell viability assay.

[29] = test system: NTERA-2-cl-D1; format: functional, cell-based, Homo sapiens; details: Homo sapiens, NTERA-2-cl-D1;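 also: inhibition of cell growth, measured with a cell viability assay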
Description: SANGER: Inhibition of human NTERA-S-cl-D1 cell growth in a cell viability assay.

[30] = test system: TE-10; format: functional, cell-based, Homo sapiens; details: Homo sapiens, TE-10;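 also: growth inhibition of TE-10 cells, measured by a cell viability assay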
Description: SANGER: Inhibition of human TE-10 cell growth in a cell viability assay.

[31] = test system: no-11; format: functional, cell-based, Homo sapiens; details: Homo sapiens;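 also: growth inhibition of human NO-11 cells, read out with a cell viability assay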
Description: SANGER: Inhibition of human no-11 cell growth in a cell viability assay.

[32] = test system: EW-11; format: functional, cell-based, Homo sapiens; details: Homo sapiens, EW-11;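 also: growth inhibition of human EW-11 cells, measured with a cell viability assay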
Description: SANGER: Inhibition of human EW-11 cell growth in a cell viability assay.

[33] = test system: A4-Fuk; format: functional, cell-based, Homo sapiens; details: Homo sapiens, A4-Fuk;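 also: growth inhibition of A4-Fuk cells, read out by a cell viability assay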
Description: SANGER: Inhibition of human A4-Fuk cell growth in a cell viability assay.

[34] = test system: GT3TKB; format: functional, cell-based, Homo sapiens; details: Homo sapiens, GT3TKB;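 also: growth inhibition of the cell line, read out with a cell viability assay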
Description: SANGER: Inhibition of human GT3TKB cell growth in a cell viability assay.

[35] = test system: OS-RC-2; format: functional, cell-based, Homo sapiens; details: Homo sapiens, OS-RC-2;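 also: growth inhibition of human OS-RC-2 cells, measured by a cell viability assay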
Description: SANGER: Inhibition of human OS-RC-2 cell growth in a cell viability assay.

[36] = test system: MV4-11; format: functional, cell-based, Homo sapiens, MV-4-11; details: Homo sapiens, MV4-11;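 also: cell viability readout measuring growth inhibition of human MV-4-11 cells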
Description: SANGER: Inhibition of human MV-4-11 cell growth in a cell viability assay.

[37] = test system: COLO-668; format: functional, cell-based, Homo sapiens; details: Homo sapiens, COLO-668
Description: SANGER: Inhibition of human COLO-668 cell growth in a cell viability assay.

[38] = test system: NB6; format: functional, cell-based, Homo sapiens; details: Homo sapiens, NB6;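 also: growth inhibition of NB6 cells, read out by a cell viability assay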
Description: SANGER: Inhibition of human NB6 cell growth in a cell viability assay.

[39] = test system: MHH-NB-11; format: functional, cell-based, Homo sapiens; details: Homo sapiens, MHH-NB-11;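 also: growth inhibition of human MHH-NB-11 cells, read out by a cell viability assay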
Description: SANGER: Inhibition of human MHH-NB-11 cell growth in a cell viability assay.

[40] = test system: MEG-01; format: functional, cell-based, Homo sapiens; details: Homo sapiens, MEG-01;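 also: growth inhibition of MEG-01 cells, read out by a cell viability assay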
Description: SANGER: Inhibition of human MEG-01 cell growth in a cell viability assay.

[41] = test system: KINGS-1; format: functional, cell-based, Homo sapiens; details: Homo sapiens, KINGS-1;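 also: cell viability assay measuring suppression of KINGS-1 cell growth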
Description: SANGER: Inhibition of human KINGS-1 cell growth in a cell viability assay.

[42] = test system: MHH-PREB-1; format: functional, cell-based, Homo sapiens; details: Homo sapiens, MHH-PREB-1;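 also: cell viability assay measuring inhibition of proliferation of human MHH-PREB-1 cells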
Description: SANGER: Inhibition of human MHH-PREB-1 cell growth in a cell viability assay.

[43] = test system: CW-2; format: functional, cell-based, Homo sapiens; details: Homo sapiens, CW-2;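 also: growth inhibition of CW-2 cells, read out by a cell viability assay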
Description: SANGER: Inhibition of human CW-2 cell growth in a cell viability assay.

[44] = test system: LB2241-RCC; format: functional, cell-based, Homo sapiens; details: Homo sapiens, LB2241-RCC;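 also: cell viability assay measuring how strongly the cultured human renal carcinoma line is prevented from growing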
Description: SANGER: Inhibition of human LB2241-RCC cell growth in a cell viability assay.

[45] = test system: OCUB-M; format: functional, cell-based; details: Homo sapiens;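 also: growth inhibition of the cancer cell line, read out through a cell viability assay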
Description: SANGER: Inhibition of human OCUB-M cell growth in a cell viability assay.

[46] = test system: LS-123; format: functional, cell-based, Homo sapiens; details: Homo sapiens, LS-123
Description: SANGER: Inhibition of human LS-123 cell growth in a cell viability assay.

[47] = test system: HOP-62; format: functional, cell-based, Homo sapiens; details: Homo sapiens, HOP-62;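 also: cell growth inhibition determined with a viability assay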
Description: SANGER: Inhibition of human HOP-62 cell growth in a cell viability assay.

Question: With `COc1cc(N2CCC(N3CCN(C)CC3)CC2)ccc1Nc1ncc(Cl)c(Nc2ccccc2S(=O)(=O)C(C)C)n1` [TAE-684] as the compound, how does the IC50 [1] read?
Answer: 552 nM

Question: And the IC50 [2]?
Answer: > 2000 nM

Question: And the IC50 [3]?
Answer: 23.8 nM

Question: And the IC50 [4]?
Answer: 955 nM

Question: And the IC50 [5]?
Answer: > 2000 nM

Question: What about the IC50 [6] of the same compound?
Answer: > 2000 nM

Question: What about the IC50 [7] of the same compound?
Answer: 533 nM

Question: What about the IC50 [8] of the same compound?
Answer: > 2000 nM

Question: What about the IC50 [9] of the same compound?
Answer: 197 nM

Question: And the IC50 [10]?
Answer: > 2000 nM

Question: What about the IC50 [11] of the same compound?
Answer: > 2000 nM

Question: And the IC50 [12]?
Answer: > 2000 nM

Question: And the IC50 [13]?
Answer: > 2000 nM

Question: And the IC50 [14]?
Answer: 389 nM

Question: And the IC50 [15]?
Answer: > 2000 nM

Question: What about the IC50 [16] of the same compound?
Answer: 839 nM

Question: What about the IC50 [17] of the same compound?
Answer: 1200 nM

Question: And the IC50 [18]?
Answer: > 2000 nM

Question: And the IC50 [19]?
Answer: 1130 nM

Question: And the IC50 [20]?
Answer: > 2000 nM

Question: What about the IC50 [21] of the same compound?
Answer: > 2000 nM

Question: What about the IC50 [22] of the same compound?
Answer: > 2000 nM

Question: And the IC50 [23]?
Answer: 499 nM

Question: And the IC50 [24]?
Answer: > 2000 nM

Question: What about the IC50 [25] of the same compound?
Answer: 545 nM

Question: What about the IC50 [26] of the same compound?
Answer: 483 nM

Question: What about the IC50 [27] of the same compound?
Answer: > 2000 nM

Question: And the IC50 [28]?
Answer: > 2000 nM

Question: What about the IC50 [29] of the same compound?
Answer: 334 nM

Question: And the IC50 [30]?
Answer: 715 nM

Question: And the IC50 [31]?
Answer: > 2000 nM

Question: And the IC50 [32]?
Answer: > 2000 nM

Question: And the IC50 [33]?
Answer: 55.7 nM

Question: What about the IC50 [34] of the same compound?
Answer: > 2000 nM

Question: And the IC50 [35]?
Answer: > 2000 nM

Question: And the IC50 [36]?
Answer: 394 nM

Question: And the IC50 [37]?
Answer: > 2000 nM

Question: And the IC50 [38]?
Answer: > 2000 nM

Question: And the IC50 [39]?
Answer: > 2000 nM

Question: What about the IC50 [40] of the same compound?
Answer: > 2000 nM

Question: And the IC50 [41]?
Answer: > 2000 nM

Question: And the IC50 [42]?
Answer: > 2000 nM

Question: What about the IC50 [43] of the same compound?
Answer: > 2000 nM

Question: What about the IC50 [44] of the same compound?
Answer: 988 nM

Question: What about the IC50 [45] of the same compound?
Answer: 1360 nM

Question: What about the IC50 [46] of the same compound?
Answer: 1520 nM

Question: What about the IC50 [47] of the same compound?
Answer: 650 nM

Question: `Nc1ccccc1NC(=O)c1ccc(CNC(=O)OCc2cccnc2)cc1` [ENTINOSTAT] was tested. Which IC50 [1] did it give?
Answer: 2120 nM

Question: And the IC50 [2]?
Answer: > 5000 nM

Question: And the IC50 [3]?
Answer: 585 nM

Question: What about the IC50 [4] of the same compound?
Answer: > 5000 nM

Question: What about the IC50 [5] of the same compound?
Answer: 1680 nM

Question: And the IC50 [6]?
Answer: 933 nM

Question: And the IC50 [7]?
Answer: 3520 nM

Question: What about the IC50 [8] of the same compound?
Answer: > 5000 nM

Question: And the IC50 [9]?
Answer: 537 nM

Question: What about the IC50 [10] of the same compound?
Answer: 3980 nM

Question: What about the IC50 [11] of the same compound?
Answer: > 5000 nM

Question: What about the IC50 [12] of the same compound?
Answer: 176 nM

Question: What about the IC50 [13] of the same compound?
Answer: > 5000 nM

Question: What about the IC50 [14] of the same compound?
Answer: 1940 nM

Question: What about the IC50 [15] of the same compound?
Answer: 406 nM

Question: And the IC50 [16]?
Answer: 571 nM

Question: What about the IC50 [17] of the same compound?
Answer: 760 nM

Question: What about the IC50 [18] of the same compound?
Answer: > 5000 nM

Question: What about the IC50 [19] of the same compound?
Answer: 1390 nM

Question: What about the IC50 [20] of the same compound?
Answer: > 5000 nM

Question: What about the IC50 [21] of the same compound?
Answer: 1290 nM

Question: And the IC50 [22]?
Answer: > 5000 nM

Question: And the IC50 [23]?
Answer: 3050 nM

Question: And the IC50 [24]?
Answer: > 5000 nM

Question: What about the IC50 [25] of the same compound?
Answer: 1630 nM

Question: And the IC50 [26]?
Answer: 3630 nM

Question: And the IC50 [27]?
Answer: > 5000 nM

Question: What about the IC50 [28] of the same compound?
Answer: 2100 nM

Question: What about the IC50 [29] of the same compound?
Answer: 201 nM

Question: And the IC50 [30]?
Answer: > 5000 nM

Question: What about the IC50 [31] of the same compound?
Answer: > 5000 nM

Question: What about the IC50 [32] of the same compound?
Answer: > 5000 nM

Question: What about the IC50 [33] of the same compound?
Answer: 1150 nM

Question: What about the IC50 [34] of the same compound?
Answer: 4330 nM

Question: And the IC50 [35]?
Answer: 968 nM

Question: What about the IC50 [36] of the same compound?
Answer: 530 nM

Question: What about the IC50 [37] of the same compound?
Answer: > 5000 nM

Question: And the IC50 [38]?
Answer: 3560 nM

Question: And the IC50 [39]?
Answer: 435 nM

Question: And the IC50 [40]?
Answer: 1220 nM

Question: And the IC50 [41]?
Answer: 4310 nM

Question: What about the IC50 [42] of the same compound?
Answer: 607 nM

Question: What about the IC50 [43] of the same compound?
Answer: 658 nM

Question: And the IC50 [44]?
Answer: 1290 nM

Question: And the IC50 [45]?
Answer: 1210 nM

Question: What about the IC50 [46] of the same compound?
Answer: 2350 nM

Question: What about the IC50 [47] of the same compound?
Answer: 484 nM
